Values joined by “and” are separate entries in the source; they are usually repeats but may differ in a detail not shown here. Equal values may be shown once. Read-outs that look alike come from different tables or passages of the source. Blank lines part the entries; values can stand above or below the compound they belong to.
Columns and labels:
hP2Y14 receptor = target: T1, hP2Y14 receptor (Homo sapiens, UniProt Q15391); assay: P2Y14 receptor-inhibited accumulation of cAMP; format: cell-based; details: for agonist activity at the P2Y14 receptor (in words): HEK-293 cells expressing hP2Y14; for fold selectivity for P2Y14 in comparison to P2Y6: ratio of EC50 at hP2Y6 to EC50 at hP2Y14; for fold more potent than UDP 3 at the P2Y14 receptor / fold less potent than UDP 3 at the P2Y14 receptor: relative to compound 3; for EC50: read-out: EC50, hP2Y14, inhibition of cAMP formation, HEK-293 cells stably transfected with hP2Y14, mean ± standard error, N = 3, NE = no effect at 10 μM
T1 sequence (Q15391 1-338): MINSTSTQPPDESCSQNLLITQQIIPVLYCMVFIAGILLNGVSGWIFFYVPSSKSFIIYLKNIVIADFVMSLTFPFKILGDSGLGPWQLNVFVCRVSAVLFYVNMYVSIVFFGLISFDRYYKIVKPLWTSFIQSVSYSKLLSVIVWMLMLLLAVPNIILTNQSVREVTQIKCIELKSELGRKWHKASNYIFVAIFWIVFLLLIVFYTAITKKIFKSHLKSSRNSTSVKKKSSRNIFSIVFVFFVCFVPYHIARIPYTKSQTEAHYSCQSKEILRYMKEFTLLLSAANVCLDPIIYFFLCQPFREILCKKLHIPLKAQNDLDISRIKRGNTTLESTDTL

hP2Y6 receptor [1] = target: T2, hP2Y6 receptor (Homo sapiens, UniProt Q15077); assay: P2Y6 receptor-stimulated PLC activity; format: cell-based; details: for agonist activity at the P2Y6 receptor (in words): at the concentrations tested
hP2Y6 receptor [2] = target: T2, hP2Y6 receptor; details: read-out: EC50, hP2Y6; stimulation of PLC, hP2Y6 in 1321N1 cells; footnote b; NE = no effect at 10 μM; ref Maruoka et al. 15, Besada et al. 17, Ko et al. 18; cited from earlier work

T2 sequence (Q15077 whole entry): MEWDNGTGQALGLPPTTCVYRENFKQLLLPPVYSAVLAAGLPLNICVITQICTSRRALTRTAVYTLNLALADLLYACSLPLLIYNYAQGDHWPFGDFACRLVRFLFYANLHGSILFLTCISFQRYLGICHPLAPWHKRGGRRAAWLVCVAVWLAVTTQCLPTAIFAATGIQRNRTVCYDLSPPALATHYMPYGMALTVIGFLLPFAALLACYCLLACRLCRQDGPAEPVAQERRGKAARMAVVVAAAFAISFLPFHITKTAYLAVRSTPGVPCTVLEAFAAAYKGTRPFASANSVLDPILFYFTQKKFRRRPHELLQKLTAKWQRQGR

SMILES: O=c1ccn([C@@H]2O[C@H](COP(=O)(O)OP(=O)(O)O)[C@@H](O)[C@H]2O)c(=O)[nH]1 [Compound 3, uridine-5′-diphosphate, reference compound]
- agonist activity at the P2Y14 receptor (in words) (hP2Y14 receptor): moderately potent agonists
- agonist activity at the P2Y14 receptor (in words) (hP2Y14 receptor; listed as UDP): full agonist

SMILES: O=c1ccn([C@@H]2O[C@H](COP(=O)(O)OP(=O)(O)O)[C@@H](O)[C@H]2O)c(=S)[nH]1 [Compound 4, 2-thio-UDP]
- fold selectivity for P2Y14 in comparison to P2Y6 (hP2Y14 receptor): 233 fold
- fold more potent than UDP 3 at the P2Y14 receptor (hP2Y14 receptor): 83 fold

SMILES: O=c1[nH]c(=S)ccn1[C@@H]1O[C@H](COP(=O)(O)OP(=O)(O)O)[C@@H](O)[C@H]1O [Compound 5, 4-thio-UDP]
- agonist activity at the P2Y14 receptor (in words) (hP2Y14 receptor): moderately potent agonists

SMILES: CO/N=c1\ccn([C@@H]2O[C@H](COP(=O)(O)OP(=O)(O)O)[C@@H](O)[C@H]2O)c(=O)[nH]1.Cl [Compound 7, N^4-OCH3-CDP]
- fold less potent than UDP 3 at the P2Y14 receptor (hP2Y14 receptor): 20 fold

SMILES: O=c1ccn([C@H]2[C@H](O)[C@H](O)[C@@]3(COP(=O)(O)OP(=O)(O)O)C[C@H]23)c(=O)[nH]1 [Compound 8, (N)-methanocarba UDP]
- EC50 (hP2Y14 receptor): > 10 µM
- EC50 (hP2Y6 receptor [1]; read-out: EC50, hP2Y6, stimulation of PLC, hP2Y6 stably expressed in 1321N1 cells, mean ± standard error, N = 3, >10,000 = <50% effect at 10 μM, NE = no effect at 10 μM): > 10 µM

SMILES: O=c1ccn([C@@]23C[C@H]2[C@H](COP(=O)(O)OP(=O)(O)O)[C@@H](O)[C@H]3O)c(=O)[nH]1 [Compound 9, (S)-methanocarba UDP]
- EC50 (hP2Y14 receptor): > 10 µM

SMILES: O=c1ccn([C@@H]2O[C@H](COP(=O)(O)C(F)(F)P(=O)(O)O)[C@@H](O)[C@H]2O)c(=O)[nH]1 [Compound 12, α,β-difluoromethylene UDP]
- agonist activity at the P2Y6 receptor (in words) (hP2Y6 receptor [1]): did not activate
- EC50 (hP2Y6 receptor [2]): > 10 µM

SMILES: COP(=O)(O)OP(=O)(O)OC[C@H]1O[C@@H](n2ccc(=O)[nH]c2=O)[C@H](O)[C@@H]1O.N [Compound 14, Diphosphoric acid 1-β-methyl ester 2-(uridine-5′-yl)ester]
- agonist activity at the P2Y14 receptor (in words) (hP2Y14 receptor): weakly activated
- agonist activity at the P2Y6 receptor (in words) (hP2Y6 receptor [1]): inactive

SMILES: COP(=O)(O)OP(=O)(O)OC[C@H]1O[C@@H](n2ccc(=O)[nH]c2=S)[C@H](O)[C@@H]1O.N [Compound 15, Diphosphoric acid 1-β-methyl ester 2-(2-thiouridine-5′-yl)ester]
- fold selectivity for P2Y14 in comparison to P2Y6 (hP2Y14 receptor): > 180 fold

SMILES: COP(=O)(O)OP(=O)(O)OC[C@H]1O[C@@H](n2ccc(=S)[nH]c2=O)[C@H](O)[C@@H]1O [Compound 16, Diphosphoric acid 1-β-methyl ester 2-(4-thiouridine-5′-yl)ester]
- EC50 (hP2Y14 receptor): > 10 µM

SMILES: CCOP(=O)(O)OP(=O)(O)OC[C@H]1O[C@@H](n2ccc(=O)[nH]c2=S)[C@H](O)[C@@H]1O.N [Compound 17, Diphosphoric acid 1-β-ethyl ester 2-(2-thiouridine-5′-yl)ester]
- fold selectivity for P2Y14 in comparison to P2Y6 (hP2Y14 receptor): > 200 fold and > 250 fold

SMILES: N.N#CCCOP(=O)(O)OP(=O)(O)OC[C@H]1O[C@@H](n2ccc(=O)[nH]c2=O)[C@H](O)[C@@H]1O [Compound 19, Diphosphoric acid 1-β-(2-cyanoethyl)ester 2-(uridine-5′-yl)ester]
- agonist activity at the P2Y14 receptor (in words) (hP2Y14 receptor): poorly tolerated

SMILES: CC(C)(C)OP(=O)(O)OP(=O)(O)OC[C@H]1O[C@@H](n2ccc(=O)[nH]c2=O)[C@H](O)[C@@H]1O [Compound 24, Diphosphoric acid 1-β-tert-butyl ester 2-(uridine-5′-yl)ester]
- EC50 (hP2Y6 receptor [1]): 10.8 µM

Results, then the compound that gave them:

- fold selectivity for P2Y14 in comparison to P2Y6 (hP2Y14 receptor): not selective
SMILES: O=c1[nH]c(=O)n([C@@H]2O[C@H](COP(=O)(O)C(F)(F)P(=O)(O)O)[C@@H](O)[C@H]2O)cc1I [Compound 13, 5-I-Up-CF2-p]

- fold selectivity for P2Y14 in comparison to P2Y6 (hP2Y14 receptor): > 200 fold
SMILES: CCCOP(=O)(O)OP(=O)(O)OC[C@H]1O[C@@H](n2ccc(=O)[nH]c2=S)[C@H](O)[C@@H]1O.N [Compound 18, Diphosphoric acid 1-β-propyl ester 2-(2-thiouridine-5′-yl)ester]

- fold less potent than UDP 3 at the P2Y14 receptor (hP2Y14 receptor): 2 fold
SMILES: C#CCCOP(=O)(O)OP(=O)(O)OC[C@H]1O[C@@H](n2ccc(=O)[nH]c2=O)[C@H](O)[C@@H]1O.CCN(CC)CC [Compound 20, Diphosphoric acid 1-β-(3-butynyl)ester 2-(uridine-5′-yl)ester]

- fold selectivity for P2Y14 in comparison to P2Y6 (hP2Y14 receptor): > 900 fold
- fold more potent than UDP 3 at the P2Y14 receptor (hP2Y14 receptor): 16 fold
SMILES: C#CCCOP(=O)(O)OP(=O)(O)OC[C@H]1O[C@@H](n2ccc(=O)[nH]c2=S)[C@H](O)[C@@H]1O.CCN(CC)CC [Compound 21, Diphosphoric acid 1-β-(3-butynyl) ester 2-(2-thiouridine-5′-yl)ester]

- fold less potent than UDP 3 at the P2Y14 receptor (hP2Y14 receptor): 10 fold
SMILES: N.O=c1ccn([C@@H]2O[C@H](COP(=O)(O)OP(=O)(O)OCC(O)CO)[C@@H](O)[C@H]2O)c(=O)[nH]1 (stereo partly drawn) [Compound 22, Diphosphoric acid 1-α-glycerol ester 2-(uridine-5′-yl)ester]

- fold more potent than UDPG at the P2Y14 receptor (hP2Y14 receptor; relative to UDPG 1): 11 fold
- fold more potent than the corresponding 2-oxo analogue 24 at the P2Y14 receptor (hP2Y14 receptor; relative to compound 24): 8 fold
SMILES: CC(C)(C)OP(=O)(O)OP(=O)(O)OC[C@H]1O[C@@H](n2ccc(=O)[nH]c2=S)[C@H](O)[C@@H]1O.N [Compound 25, Diphosphoric acid 1-β-tert-butyl ester 2-(2-thiouridine-5′-yl)ester]

Reference: paper PMC2804908 (Journal of medicinal chemistry, 2010)
